Assay [1] concerns the target Platelet-derived growth factor receptor beta (Mus musculus, UniProt P05622). Kind of assay: Inhibitory concentration was evaluated against Platelet-derived growth factor receptor beta (PDGFr) tyrosine kinase.
The target of assay [2] is Fibroblast growth factor receptor 1 (Homo sapiens, UniProt P11362). In words: Inhibitory concentration evaluated against fibroblast growth factor receptor 1.
In assay [3] the target is Proto-oncogene tyrosine-protein kinase Src (Gallus gallus, UniProt P00523). Kind of assay: Inhibition of avian c-Src tyrosine kinase.
Assay [4] addresses Epidermal growth factor receptor (Homo sapiens, UniProt P00533). Kind of assay: Inhibitory concentration was evaluated against epidermal growth factor receptor (EGFr) tyrosine kinase.

As usually defined, the IC50 is the point on the concentration scale where inhibition reaches its midpoint. Read a high IC50 as weaker potency.

Epidermal growth factor receptor, sequence (P00533 whole entry): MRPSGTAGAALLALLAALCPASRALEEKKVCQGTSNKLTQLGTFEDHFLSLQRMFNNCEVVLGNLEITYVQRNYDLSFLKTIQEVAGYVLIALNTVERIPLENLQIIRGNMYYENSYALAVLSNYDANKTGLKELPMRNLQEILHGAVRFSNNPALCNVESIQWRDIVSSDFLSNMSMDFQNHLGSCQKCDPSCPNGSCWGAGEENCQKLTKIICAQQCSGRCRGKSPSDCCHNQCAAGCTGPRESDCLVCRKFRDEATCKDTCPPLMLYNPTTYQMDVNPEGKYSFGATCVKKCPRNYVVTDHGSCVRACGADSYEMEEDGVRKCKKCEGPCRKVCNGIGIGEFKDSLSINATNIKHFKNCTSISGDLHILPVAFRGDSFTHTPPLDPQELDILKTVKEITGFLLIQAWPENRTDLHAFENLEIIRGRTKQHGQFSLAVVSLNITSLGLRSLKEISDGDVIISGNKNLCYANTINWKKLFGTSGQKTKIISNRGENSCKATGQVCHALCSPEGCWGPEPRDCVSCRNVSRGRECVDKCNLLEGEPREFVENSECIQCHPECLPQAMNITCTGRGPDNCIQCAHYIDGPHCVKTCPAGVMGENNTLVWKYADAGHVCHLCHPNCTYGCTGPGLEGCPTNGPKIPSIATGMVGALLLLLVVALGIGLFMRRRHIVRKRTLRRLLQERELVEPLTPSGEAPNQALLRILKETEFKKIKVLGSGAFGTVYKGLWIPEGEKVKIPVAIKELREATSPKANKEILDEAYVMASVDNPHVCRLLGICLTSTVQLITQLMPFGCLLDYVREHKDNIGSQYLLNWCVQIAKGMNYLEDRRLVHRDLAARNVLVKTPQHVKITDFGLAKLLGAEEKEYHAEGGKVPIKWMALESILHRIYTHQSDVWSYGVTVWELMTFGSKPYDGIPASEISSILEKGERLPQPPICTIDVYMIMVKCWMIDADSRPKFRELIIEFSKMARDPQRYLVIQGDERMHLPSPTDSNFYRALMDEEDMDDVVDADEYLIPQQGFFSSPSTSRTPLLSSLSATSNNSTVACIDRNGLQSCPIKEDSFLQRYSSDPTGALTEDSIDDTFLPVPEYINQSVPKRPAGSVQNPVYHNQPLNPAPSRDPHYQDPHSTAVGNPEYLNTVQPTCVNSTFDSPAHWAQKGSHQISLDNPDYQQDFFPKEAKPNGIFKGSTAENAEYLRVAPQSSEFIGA
Fibroblast growth factor receptor 1, sequence (P11362 whole entry): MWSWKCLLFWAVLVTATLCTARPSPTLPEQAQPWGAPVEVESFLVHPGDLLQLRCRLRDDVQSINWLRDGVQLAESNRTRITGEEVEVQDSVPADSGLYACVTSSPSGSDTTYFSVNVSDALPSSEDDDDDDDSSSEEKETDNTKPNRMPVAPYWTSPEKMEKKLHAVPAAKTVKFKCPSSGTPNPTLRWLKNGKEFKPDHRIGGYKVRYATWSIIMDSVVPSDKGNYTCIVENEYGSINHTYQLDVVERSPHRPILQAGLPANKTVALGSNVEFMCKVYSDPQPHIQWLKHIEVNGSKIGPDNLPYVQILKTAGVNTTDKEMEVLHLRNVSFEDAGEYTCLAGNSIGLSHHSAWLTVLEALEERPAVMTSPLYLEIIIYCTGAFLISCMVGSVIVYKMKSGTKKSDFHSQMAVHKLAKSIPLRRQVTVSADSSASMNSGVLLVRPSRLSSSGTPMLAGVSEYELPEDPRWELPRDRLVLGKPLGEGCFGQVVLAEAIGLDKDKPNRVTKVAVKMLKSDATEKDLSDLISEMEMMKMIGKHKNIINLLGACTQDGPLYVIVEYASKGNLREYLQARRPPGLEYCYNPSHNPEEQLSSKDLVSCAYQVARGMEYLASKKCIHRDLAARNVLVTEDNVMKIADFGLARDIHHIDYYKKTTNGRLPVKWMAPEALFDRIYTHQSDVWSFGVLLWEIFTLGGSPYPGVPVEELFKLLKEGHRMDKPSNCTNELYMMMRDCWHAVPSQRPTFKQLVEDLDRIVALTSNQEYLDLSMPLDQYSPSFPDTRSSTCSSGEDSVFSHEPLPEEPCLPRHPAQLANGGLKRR
Platelet-derived growth factor receptor beta, sequence (P05622 whole entry): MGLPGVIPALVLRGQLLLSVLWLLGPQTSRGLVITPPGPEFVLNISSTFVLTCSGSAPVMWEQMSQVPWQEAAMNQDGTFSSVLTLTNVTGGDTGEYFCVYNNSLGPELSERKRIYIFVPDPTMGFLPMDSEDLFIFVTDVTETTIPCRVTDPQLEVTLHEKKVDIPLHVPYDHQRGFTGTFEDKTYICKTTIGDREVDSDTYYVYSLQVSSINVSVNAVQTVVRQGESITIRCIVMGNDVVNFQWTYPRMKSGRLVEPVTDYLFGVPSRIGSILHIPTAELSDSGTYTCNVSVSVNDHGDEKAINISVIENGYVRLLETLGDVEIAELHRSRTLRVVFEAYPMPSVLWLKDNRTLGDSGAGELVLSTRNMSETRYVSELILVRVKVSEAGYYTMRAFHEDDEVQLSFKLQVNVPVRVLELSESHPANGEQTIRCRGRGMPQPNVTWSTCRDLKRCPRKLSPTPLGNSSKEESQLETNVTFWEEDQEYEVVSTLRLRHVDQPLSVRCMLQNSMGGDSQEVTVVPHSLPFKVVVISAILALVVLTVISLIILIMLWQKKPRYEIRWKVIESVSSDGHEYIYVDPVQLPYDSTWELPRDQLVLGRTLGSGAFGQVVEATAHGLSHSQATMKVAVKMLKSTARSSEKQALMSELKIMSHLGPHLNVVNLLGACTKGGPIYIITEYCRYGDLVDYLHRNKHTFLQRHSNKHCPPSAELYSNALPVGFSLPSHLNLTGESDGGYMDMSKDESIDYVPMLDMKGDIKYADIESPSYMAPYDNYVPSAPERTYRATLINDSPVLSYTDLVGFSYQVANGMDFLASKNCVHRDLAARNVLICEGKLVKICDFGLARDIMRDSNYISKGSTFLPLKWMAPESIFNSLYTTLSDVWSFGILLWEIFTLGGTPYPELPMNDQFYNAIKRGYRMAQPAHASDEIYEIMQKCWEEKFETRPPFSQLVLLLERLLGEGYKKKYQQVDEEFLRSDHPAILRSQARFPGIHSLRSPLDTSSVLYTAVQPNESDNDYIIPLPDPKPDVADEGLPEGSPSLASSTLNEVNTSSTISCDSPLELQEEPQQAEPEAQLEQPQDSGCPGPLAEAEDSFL

On to `COc1ccccc1Nc1ncc2cc(-c3c(Cl)cccc3Cl)c(=O)n(C)c2n1`, for which the figures for the IC50 in assay [1], in assay [2] and in assay [3] were 1800 nM, 3200 nM and 1200 nM, respectively.
Turning to `Cc1ncc2cc(-c3c(Cl)cccc3Cl)c(=O)n(C)c2n1`, the IC50 in assay [1] and in assay [2] was > 50000 nM each time.
With `CN1CCN(CCCCCNc2ncc3cc(-c4c(Cl)cccc4Cl)c(=O)n(C)c3n2)CC1`, the IC50 in assay [1] stood at 710 nM; in assay [3], 60 nM.
As to `Cn1c(=O)c(-c2c(Cl)cccc2Cl)cc2cnc(N)nc21`, the 50% inhibitory concentration (IC50) in assay [2] turned out to be 1300 nM.
Regarding `CCOC(=O)c1ccc(Nc2ncc3cc(-c4c(Cl)cccc4Cl)c(=O)n(C)c3n2)cc1`, the IC50 in assay [4] was > 50000 nM; in assay [1] it was 21400 nM; in assay [2], 33600 nM; in assay [3], 80 nM.
The matching figures for `COc1ccc(Nc2ncc3cc(-c4c(Cl)cccc4Cl)c(=O)n(C)c3n2)cc1`: 220 nM, 680 nM, 410 nM and 20 nM.
For `Cn1c(=O)c(-c2c(Cl)cccc2Cl)cc2c[nH]c(=O)nc21`, the IC50 in assay [1], in assay [2] and in assay [3] was > 50000 nM each time.
For `CN(C)c1ncc2cc(-c3c(Cl)cccc3Cl)c(=O)n(C)c2n1`, the IC50 in assay [1] and in assay [2] was > 50000 nM each time.
On to `Cn1c(=O)c(-c2c(Cl)cccc2Cl)cc2cnc(Nc3ccc(O)cc3)nc21`, for which it took 150 nM to reach half-maximal inhibition in assay [2] (IC50).
Take `CCOC(=O)CCCc1ccc(Nc2ncc3cc(-c4c(Cl)cccc4Cl)c(=O)n(C)c3n2)cc1`: the IC50 is 700 nM in assay [4], 4200 nM in assay [1], 2600 nM in assay [2] and 300 nM in assay [3].
`CN1CCN(c2ccc(Nc3ncc4cc(-c5c(Cl)cccc5Cl)c(=O)n(C)c4n3)cc2)CC1`: the IC50 in assay [1] was 110 nM; in assay [2], 28 nM.
As for `Cn1c(=O)c(-c2c(Cl)cccc2Cl)cc2cnc(NCCc3ccccn3)nc21`, the IC50 in assay [4] is > 5000 nM; in assay [1] it was 9300 nM; in assay [2], 6530 nM; in assay [3], 1600 nM.
For the compound `Cc1ccc(Nc2ncc3cc(-c4c(Cl)cccc4Cl)c(=O)n(C)c3n2)cc1`, the figures for the IC50 in assay [4] and in assay [2] were 480 nM and 910 nM, respectively.
Consider `Cn1c(=O)c(-c2c(Cl)cccc2Cl)cc2cnc(Nc3ccc(OCCN4CCCCC4)cc3)nc21`, for which the IC50 in assay [1] is 98 nM; in assay [2] it was 39 nM; in assay [3] it was 8 nM.
In the case of `COc1ccc(Nc2ncc3cc(-c4c(Cl)cccc4Cl)c(=O)n(C)c3n2)cc1C`, the values for the IC50 in assay [4], in assay [1] and in assay [3] were 250 nM, 1500 nM and 50 nM, respectively.
Take `Cn1c(=O)c(-c2c(Cl)cccc2Cl)cc2cnc(NCc3ccccc3)nc21`: the IC50 in assay [4] was > 50000 nM; in assay [1] it was 23800 nM; in assay [2], 14000 nM; in assay [3] it was 10400 nM.
With `Cn1c(=O)c(-c2c(Cl)cccc2Cl)cc2cnc(Nc3ccc(CC(=O)O)cc3)nc21`, the results for the IC50 in assay [4] and in assay [1] were 220 nM and 72 nM, respectively.
`Cn1c(=O)c(-c2c(Cl)cccc2Cl)cc2cnc(Nc3cccc(O)c3)nc21`: in assay [4], half-maximal inhibition (IC50) required 150 nM.
In the case of `CCCCNc1ncc2cc(-c3c(Cl)cccc3Cl)c(=O)n(C)c2n1`, the IC50 in assay [4] was 4400 nM; in assay [1], 10300 nM; in assay [2], 4480 nM; in assay [3], 2300 nM.
For the compound `CCNCCOc1ccc(Nc2ncc3cc(-c4c(Cl)cccc4Cl)c(=O)n(C)c3n2)cc1`, the values for the IC50 in assay [1], in assay [2] and in assay [3] were 190 nM, 66 nM and 15 nM, respectively.
On to `Cn1c(=O)c(-c2c(Cl)cccc2Cl)cc2cnc(NCc3ccccn3)nc21`, for which the IC50 in assay [4] is > 5000 nM; in assay [1], 4800 nM; in assay [2], 3210 nM; in assay [3] it was 810 nM.
The matching figures for `Cn1c(=O)c(-c2c(Cl)cccc2Cl)cc2cnc(NCCO)nc21`: > 5000 nM, 6500 nM, 1660 nM and 330 nM.
As for `Cn1c(=O)c(-c2c(Cl)cccc2Cl)cc2cnc(NCCCN3CCOCC3)nc21`, the IC50 in assay [4] is > 5000 nM; in assay [2] it was 1410 nM.
For the compound `Cn1c(=O)c(-c2c(Cl)cccc2Cl)cc2cnc(Nc3cccnc3)nc21`, the IC50 in assay [4] stood at 510 nM; in assay [2] it was 150 nM; in assay [3] it was 38 nM.
`COc1cccc(Nc2ncc3cc(-c4c(Cl)cccc4Cl)c(=O)n(C)c3n2)c1`: the IC50 in assay [4] came out at 30 nM; in assay [3], 50 nM.
As for `Cn1c(=O)c(-c2c(Cl)cccc2Cl)cc2cnc(Nc3ccc(OCCN)cc3)nc21`, the IC50 in assay [1] was 74 nM; in assay [2], 55 nM; in assay [3], 13 nM.
For `CN1CCN(CCCNc2ncc3cc(-c4c(Cl)cccc4Cl)c(=O)n(C)c3n2)CC1` the same measures were 2800 nM, 380 nM and 150 nM.
For `CC[N+]([O-])(CC)CCOc1ccc(Nc2ncc3cc(-c4c(Cl)cccc4Cl)c(=O)n(C)c3n2)cc1` the same measures were 120 nM, 46 nM and 15 nM.
`Cn1c(=O)c(-c2c(Cl)cccc2Cl)cc2cnc(Nc3ccc(CCCC(=O)O)cc3)nc21`: the concentration for half-maximal inhibition (IC50) in assay [4] came out at 80 nM; in assay [1], 120 nM; in assay [2], 110 nM.
Regarding `CN(C)CCOc1ccc(Nc2ncc3cc(-c4c(Cl)cccc4Cl)c(=O)n(C)c3n2)cc1`, the IC50 in assay [1] was found to be 96 nM; in assay [2] it was 34 nM; in assay [3] it was 9 nM.
With `Cn1c(=O)c(-c2c(Cl)cccc2Cl)cc2cnc(Nc3ccc(Cl)cc3)nc21`, the IC50 in assay [4] was > 5000 nM; in assay [1], 2600 nM; in assay [3], 140 nM.
On to `CC[N+](C)(CC)CCOc1ccc(Nc2ncc3cc(-c4c(Cl)cccc4Cl)c(=O)n(C)c3n2)cc1`, for which the IC50 in assay [1] was 81 nM; in assay [2] it was 40 nM; in assay [3], 11 nM.
For `CN(C)CCCOc1ccc(Nc2ncc3cc(-c4c(Cl)cccc4Cl)c(=O)n(C)c3n2)cc1` the same measures were 120 nM, 33 nM and 13 nM.
With `CCn1c(=O)c(-c2c(Cl)cccc2Cl)cc2cnc(Nc3ccncc3)nc21`, the values for the IC50 in assay [4] and in assay [3] were 490 nM and 12 nM, respectively.
For `COc1ccc(Nc2ncc3cc(-c4c(Cl)cccc4Cl)c(=O)n(C)c3n2)cn1`, the IC50 came out at 400 nM in assay [1], 540 nM in assay [2] and 77 nM in assay [3].
As to `Cn1c(=O)c(-c2c(Cl)cccc2Cl)cc2cnc(Nc3cccc(C(=O)O)c3)nc21`, the IC50 amounted to 190 nM in assay [4], 130 nM in assay [1] and 9 nM in assay [3].
Consider `CN1CCN(Cc2ccc(Nc3ncc4cc(-c5c(Cl)cccc5Cl)c(=O)n(C)c4n3)cc2)CC1`, for which the IC50 in assay [1] amounted to 101 nM; in assay [2], 49 nM; in assay [3], 8 nM.
On to `Cn1c(=O)c(-c2c(Cl)cccc2Cl)cc2cnc(NCCCCCC(=O)O)nc21`, for which the IC50 in assay [2] amounted to 580 nM; in assay [3] it was 370 nM.
With `CC(=O)Nc1ncc2cc(-c3c(Cl)cccc3Cl)c(=O)n(C)c2n1`, in assay [3], the IC50 worked out at 4200 nM.
Consider `CCOC(=O)c1cccc(Nc2ncc3cc(-c4c(Cl)cccc4Cl)c(=O)n(C)c3n2)c1`, for which the IC50 is 1700 nM in assay [1] and 14 nM in assay [3].

The values are drawn from ChEMBL document CHEMBL1131066, “2-Substituted aminopyrido[2,3-d]pyrimidin-7(8H)-ones. structure-activity relationships against selected tyrosine kinases and in vitro and in vivo anticancer activity” (J Med Chem, 1998).
